Test results: patent US11109593B2, “Isoxazolin-5-one derivative and herbicide containing same as active ingredient” (HOKKO CHEMICAL INDUSTRY CO., LTD., priority 2017, dated 2021)

These compounds were tested on Echinochloa crus-galli (assay: Test Example 1: herbicidal effect test by treatment of rice paddy soil (immediately after seeding)). Details: 120 g/10a active ingredient, dry weight vs untreated area, 14 days after treatment.
Assay type: in vivo
How it was run: (§1)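 Pre-emergence paddy water application, 120 g a.i./10 ares, applied immediately post-seeding into ~3 cm flood; glasshouse; duplicate pots; dry weight at 14 d → % inhibition = (1 − treated/untreated) × 100.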

Row | SMILES | Herbicidal rate (%) Echinochloa crus-galli [%]
1 | Cc1c(Cc2ccccc2N(C(=O)c2ccccc2)S(=O)(=O)C(F)(F)F)c(=O)on1C(C)(C)C [Compound 1-473] | 90
2 | Cc1c(Cc2ccccc2N(C(=O)CC(C)C)S(=O)(=O)C(F)(F)F)c(=O)on1C(C)(C)C [Compound 1-351] | 90

The compounds below were run on Scirpus juncoides in the same assay as above. Details: 120 g/10a active ingredient, dry weight vs untreated area, 14 days after treatment.
Assay type: in vivo
How it was run: as §1

Row | SMILES | Herbicidal rate (%) Scirpus juncoides [%]
3 | Cc1c(Cc2ccccc2N(C(=O)c2ccccc2)S(=O)(=O)C(F)(F)F)c(=O)on1C(C)(C)C [Compound 1-473] | 90
4 | Cc1c(Cc2ccccc2N(C(=O)CC(C)C)S(=O)(=O)C(F)(F)F)c(=O)on1C(C)(C)C [Compound 1-351] | 90

Each compound was assayed on broad leaf weeds (Lindernia pyxidaria and Monochoria vaginalis) in the same assay as above. Details: Lindernia pyxidaria, 120 g/10a active ingredient, dry weight vs untreated area, 14 days after treatment.
Assay type: in vivo
How it was run: as §1

Row | SMILES | Herbicidal rate (%) Lindernia pyxidaria [%]
5 | Cc1c(Cc2ccccc2N(C(=O)c2ccccc2)S(=O)(=O)C(F)(F)F)c(=O)on1C(C)(C)C [Compound 1-473] | 90
6 | Cc1c(Cc2ccccc2N(C(=O)CC(C)C)S(=O)(=O)C(F)(F)F)c(=O)on1C(C)(C)C [Compound 1-351] | 90

Same assay, conditions: Monochoria vaginalis, 120 g/10a active ingredient, dry weight vs untreated area, 14 days after treatment

Row | SMILES | Herbicidal rate (%) Monochoria vaginalis [%]
7 | Cc1c(Cc2ccccc2N(C(=O)c2ccccc2)S(=O)(=O)C(F)(F)F)c(=O)on1C(C)(C)C [Compound 1-473] | 90
8 | Cc1c(Cc2ccccc2N(C(=O)CC(C)C)S(=O)(=O)C(F)(F)F)c(=O)on1C(C)(C)C [Compound 1-351] | 90

These compounds were tested on Echinochloa crus-galli (assay: Test Example 2: herbicidal effect test by treatment during growing period in paddy rice cultivation (seven days after seeding)). Details: 120 g/10a active ingredient, assessed 14 days after treatment, dry weight vs untreated area.
Assay type: in vivo
How it was run: (§2)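 Seeds sown 0–1 cm deep in puddled, fertilised paddy soil with about 3 cm standing water in a glass greenhouse. Diluted emulsion dropped into the water seven days after seeding at 120 g active ingredient per 10 ares. Herbicidal rate (%) from mean dry weight vs untreated, duplicate, 14 days after treatment.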

Row | SMILES | Herbicidal rate (%) Echinochloa crus-galli [%]
9 | Cc1c(Cc2ccccc2N(C(=O)c2ccccc2)S(=O)(=O)C(F)(F)F)c(=O)on1C(C)(C)C [Compound 1-473] | 90
10 | Cc1c(Cc2ccccc2N(C(=O)CC(C)C)S(=O)(=O)C(F)(F)F)c(=O)on1C(C)(C)C [Compound 1-351] | 90

What follows are compounds tested on Scirpus juncoides in the same assay as above. Details: 120 g/10a active ingredient, assessed 14 days after treatment, dry weight vs untreated area.
Assay type: in vivo
How it was run: as §2

Row | SMILES | Herbicidal rate (%) Scirpus juncoides [%]
11 | Cc1c(Cc2ccccc2N(C(=O)c2ccccc2)S(=O)(=O)C(F)(F)F)c(=O)on1C(C)(C)C [Compound 1-473] | 90
12 | Cc1c(Cc2ccccc2N(C(=O)CC(C)C)S(=O)(=O)C(F)(F)F)c(=O)on1C(C)(C)C [Compound 1-351] | 90

These compounds were tested on broad leaf weeds (Lindernia pyxidaria and Monochoria vaginalis) in the same assay as above. Details: Lindernia pyxidaria, 120 g/10a active ingredient, assessed 14 days after treatment, dry weight vs untreated area.
Assay type: in vivo
How it was run: as §2

Row | SMILES | Herbicidal rate (%) Lindernia pyxidaria [%]
13 | Cc1c(Cc2ccccc2N(C(=O)c2ccccc2)S(=O)(=O)C(F)(F)F)c(=O)on1C(C)(C)C [Compound 1-473] | 90
14 | Cc1c(Cc2ccccc2N(C(=O)CC(C)C)S(=O)(=O)C(F)(F)F)c(=O)on1C(C)(C)C [Compound 1-351] | 90

Same assay, conditions: Monochoria vaginalis, 120 g/10a active ingredient, assessed 14 days after treatment, dry weight vs untreated area

Row | SMILES | Herbicidal rate (%) Monochoria vaginalis [%]
15 | Cc1c(Cc2ccccc2N(C(=O)c2ccccc2)S(=O)(=O)C(F)(F)F)c(=O)on1C(C)(C)C [Compound 1-473] | 90
16 | Cc1c(Cc2ccccc2N(C(=O)CC(C)C)S(=O)(=O)C(F)(F)F)c(=O)on1C(C)(C)C [Compound 1-351] | 90

These compounds were tested on Amaranthus viridis (assay: Test Example 3: herbicidal effect test by treatment of dry field farming soil (one day after seeding)). Details: 120 g/10a active ingredient, evaluated 14 days after treatment.
Assay type: in vivo
How it was run: (§3)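 Alluvial dry-field soil in pots, top 1 cm mixed with 20 seeds per weed species. One day after seeding, the water-diluted emulsion was sprayed onto the soil surface at 100 L per 10 ares (120 g active ingredient per 10 ares). Duplicate pots; herbicidal rate (%) from plant dry weight versus untreated, 14 days after treatment.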

Row | SMILES | herbicidal rate, Amaranthus viridis [%]
17 | Cc1c(Cc2ccccc2N(C(=O)c2ccccc2)S(=O)(=O)C(F)(F)F)c(=O)on1C(C)(C)C [Compound 1-473] | 90
18 | Cc1c(Cc2ccccc2N(C(=O)CC(C)C)S(=O)(=O)C(F)(F)F)c(=O)on1C(C)(C)C [Compound 1-351] | 90

These compounds were tested on Chenopodium album in the same assay as above. Details: 120 g/10a active ingredient, evaluated 14 days after treatment.
Assay type: in vivo
How it was run: as §3

Row | SMILES | herbicidal rate, Chenopodium album [%]
19 | Cc1c(Cc2ccccc2N(C(=O)c2ccccc2)S(=O)(=O)C(F)(F)F)c(=O)on1C(C)(C)C [Compound 1-473] | 90
20 | Cc1c(Cc2ccccc2N(C(=O)CC(C)C)S(=O)(=O)C(F)(F)F)c(=O)on1C(C)(C)C [Compound 1-351] | 90

These compounds were tested on Echinochloa crus-galli in the same assay as above. Details: 120 g/10a active ingredient, evaluated 14 days after treatment.
Assay type: in vivo
How it was run: as §3

Row | SMILES | herbicidal rate, Echinochloa crus-galli [%]
21 | Cc1c(Cc2ccccc2N(C(=O)c2ccccc2)S(=O)(=O)C(F)(F)F)c(=O)on1C(C)(C)C [Compound 1-473] | 90
22 | Cc1c(Cc2ccccc2N(C(=O)CC(C)C)S(=O)(=O)C(F)(F)F)c(=O)on1C(C)(C)C [Compound 1-351] | 90

Each compound was assayed on southern crabgrass in the same assay as above. Details: 120 g/10a active ingredient, evaluated 14 days after treatment.
Assay type: in vivo
How it was run: as §3

Row | SMILES | herbicidal rate, southern crabgrass [%]
23 | Cc1c(Cc2ccccc2N(C(=O)c2ccccc2)S(=O)(=O)C(F)(F)F)c(=O)on1C(C)(C)C [Compound 1-473] | 90
24 | Cc1c(Cc2ccccc2N(C(=O)CC(C)C)S(=O)(=O)C(F)(F)F)c(=O)on1C(C)(C)C [Compound 1-351] | 90

These compounds were tested on Amaranthus viridis (assay: Test Example 4: herbicidal effect test by treatment of leave and stem in dry field farming (seven days after seeding)). Details: 120 g/10a active ingredient; emulsion sprayed seven days after seeding; evaluated 14 days after treatment.
Assay type: in vivo
How it was run: (§4)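 Weeds were seeded at 20 seeds per species into the top 1 cm of alluvial upland soil in pots, then sprayed 7 days after seeding with water-diluted emulsifiable concentrate at 100 L/10 a, giving 120 g active ingredient/10 a. Duplicate pots; herbicidal rate (%) was 14 days post-treatment, from dry weight versus untreated.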

Row | SMILES | herbicidal effect (herbicidal rate), Amaranthus viridis [%]
25 | Cc1c(Cc2ccccc2N(C(=O)c2ccccc2)S(=O)(=O)C(F)(F)F)c(=O)on1C(C)(C)C [Compound 1-473] | 40
26 | Cc1c(Cc2ccccc2N(C(=O)CC(C)C)S(=O)(=O)C(F)(F)F)c(=O)on1C(C)(C)C [Compound 1-351] | 40

The compounds below were run on Chenopodium album in the same assay as above. Details: 120 g/10a active ingredient; emulsion sprayed seven days after seeding; evaluated 14 days after treatment.
Assay type: in vivo
How it was run: as §4

Row | SMILES | herbicidal effect (herbicidal rate), Chenopodium album [%]
27 | Cc1c(Cc2ccccc2N(C(=O)c2ccccc2)S(=O)(=O)C(F)(F)F)c(=O)on1C(C)(C)C [Compound 1-473] | 40
28 | Cc1c(Cc2ccccc2N(C(=O)CC(C)C)S(=O)(=O)C(F)(F)F)c(=O)on1C(C)(C)C [Compound 1-351] | 40

What follows are compounds tested on Echinochloa crus-galli in the same assay as above. Details: 120 g/10a active ingredient; emulsion sprayed seven days after seeding; evaluated 14 days after treatment.
Assay type: in vivo
How it was run: as §4

Row | SMILES | herbicidal effect (herbicidal rate), Echinochloa crus-galli [%]
29 | Cc1c(Cc2ccccc2N(C(=O)c2ccccc2)S(=O)(=O)C(F)(F)F)c(=O)on1C(C)(C)C [Compound 1-473] | 90
30 | Cc1c(Cc2ccccc2N(C(=O)CC(C)C)S(=O)(=O)C(F)(F)F)c(=O)on1C(C)(C)C [Compound 1-351] | 90

Each compound was assayed on southern crabgrass in the same assay as above. Details: 120 g/10a active ingredient; emulsion sprayed seven days after seeding; evaluated 14 days after treatment.
Assay type: in vivo
How it was run: as §4

Row | SMILES | herbicidal effect (herbicidal rate), southern crabgrass [%]
31 | Cc1c(Cc2ccccc2N(C(=O)c2ccccc2)S(=O)(=O)C(F)(F)F)c(=O)on1C(C)(C)C [Compound 1-473] | 90
32 | Cc1c(Cc2ccccc2N(C(=O)CC(C)C)S(=O)(=O)C(F)(F)F)c(=O)on1C(C)(C)C [Compound 1-351] | 90
